System: 883617-216-R-J1-PDC complex spheroid viability
Experiment: Anticancer human tumor 883617-216-R-J1-PDC patient-derived bladder carcinoma cell line growth inhibition
Conditions: for IC50: curve of first compound; for viability, T/C: stronger effect = lower value
How it was run: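 Complex spheroids of tumor cells with HUVEC and human MSCs, exposed to iadademstat combined with other agents. Each agent tested in half-log steps from near clinical Cmax (else 10 microM top), DMSO ≤0.25%.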
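Also: exposure lasted seven days after three days of spheroid growth.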
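For viability, T/C in this document: 100% = DMSO vehicle control luminescence.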

With `CC[C@@]1(O)C(=O)OCc2c1cc1n(c2=O)Cc2cc3c(CN(C)C)c(O)ccc3nc2-1` + NC1CCC(NC2CC2c2ccccc2)CC1 as the compound, how does the IC50 (second compound 0.1 µM) read?
The IC50 was 4.71 nM.

And the IC50 (second compound 0.316 µM)?
Its IC50 is 5.7 nM.

And the IC50 (second compound 1 µM)?
Its IC50 is 6.31 nM.

And the IC50 (second compound 3.16 µM)?
The IC50 was 6.47 nM.

What about the IC50 (second compound 10 µM) of the same compound?
Its IC50 is 7.25 nM.

What about the viability, T/C (second compound 0.1 µM, first compound 0.000316 µM) of the same compound?
Its viability, T/C is 94.9%.

And the viability, T/C (second compound 0.1 µM, first compound 0.001 µM)?
The viability, T/C was 85.8%.

And the viability, T/C (second compound 0.1 µM, first compound 0.00316 µM)?
The viability, T/C was 55.2%.

What about the viability, T/C (second compound 0.1 µM, first compound 0.01 µM) of the same compound?
The viability, T/C was 38.9%.

And the viability, T/C (second compound 0.1 µM, first compound 0.0316 µM)?
Its viability, T/C is 33.8%.

What about the viability, T/C (second compound 0.1 µM, first compound 0.1 µM) of the same compound?
The viability, T/C was 28.5%.

And the viability, T/C (second compound 0.316 µM, first compound 0.000316 µM)?
Its viability, T/C is 103%.

What about the viability, T/C (second compound 0.316 µM, first compound 0.001 µM) of the same compound?
Its viability, T/C is 104%.

And the viability, T/C (second compound 0.316 µM, first compound 0.00316 µM)?
Its viability, T/C is 62.5%.

And the viability, T/C (second compound 0.316 µM, first compound 0.01 µM)?
The viability, T/C was 42.6%.

What about the viability, T/C (second compound 0.316 µM, first compound 0.0316 µM) of the same compound?
The viability, T/C was 30.9%.

And the viability, T/C (second compound 0.316 µM, first compound 0.1 µM)?
The viability, T/C was 32.4%.

And the viability, T/C (second compound 1 µM, first compound 0.000316 µM)?
Its viability, T/C is 93.7%.

What about the viability, T/C (second compound 1 µM, first compound 0.001 µM) of the same compound?
The viability, T/C was 87.2%.

What about the viability, T/C (second compound 1 µM, first compound 0.00316 µM) of the same compound?
Its viability, T/C is 57.4%.

What about the viability, T/C (second compound 1 µM, first compound 0.01 µM) of the same compound?
Its viability, T/C is 44.2%.

And the viability, T/C (second compound 1 µM, first compound 0.0316 µM)?
The viability, T/C was 36.2%.

What about the viability, T/C (second compound 1 µM, first compound 0.1 µM) of the same compound?
Its viability, T/C is 26.9%.

What about the viability, T/C (second compound 3.16 µM, first compound 0.000316 µM) of the same compound?
Its viability, T/C is 95.8%.

What about the viability, T/C (second compound 3.16 µM, first compound 0.001 µM) of the same compound?
Its viability, T/C is 86.1%.

What about the viability, T/C (second compound 3.16 µM, first compound 0.00316 µM) of the same compound?
Its viability, T/C is 61.3%.

And the viability, T/C (second compound 3.16 µM, first compound 0.01 µM)?
The viability, T/C was 42.5%.

What about the viability, T/C (second compound 3.16 µM, first compound 0.0316 µM) of the same compound?
The viability, T/C was 35.4%.

What about the viability, T/C (second compound 3.16 µM, first compound 0.1 µM) of the same compound?
Its viability, T/C is 28.8%.

What about the viability, T/C (second compound 10 µM, first compound 0.000316 µM) of the same compound?
The viability, T/C was 99.3%.

And the viability, T/C (second compound 10 µM, first compound 0.001 µM)?
Its viability, T/C is 98.2%.

What about the viability, T/C (second compound 10 µM, first compound 0.00316 µM) of the same compound?
Its viability, T/C is 74.7%.

What about the viability, T/C (second compound 10 µM, first compound 0.01 µM) of the same compound?
The viability, T/C was 40%.

And the viability, T/C (second compound 10 µM, first compound 0.0316 µM)?
The viability, T/C was 36.7%.

And the viability, T/C (second compound 10 µM, first compound 0.1 µM)?
Its viability, T/C is 28.6%.

For `CCc1c2c(nc3ccc(O)cc13)-c1cc3c(c(=O)n1C2)COC(=O)[C@]3(O)CC` + NC1CC1c1ccc(-c2cccc(O)c2)cc1, which IC50 (second compound 0.1 µM) is on record?
The IC50 was < 0.949 nM.

What about the IC50 (second compound 0.316 µM) of the same compound?
The IC50 was < 0.949 nM.

What about the IC50 (second compound 1 µM) of the same compound?
The IC50 was < 0.949 nM.

And the IC50 (second compound 3.16 µM)?
The IC50 was < 0.949 nM.

And the IC50 (second compound 10 µM)?
The IC50 was < 0.949 nM.

What about the viability, T/C (second compound 0.1 µM, first compound 0.000949 µM) of the same compound?
Its viability, T/C is 25.1%.

And the viability, T/C (second compound 0.1 µM, first compound 0.003 µM)?
The viability, T/C was 20.4%.

And the viability, T/C (second compound 0.1 µM, first compound 0.00949 µM)?
Its viability, T/C is 17.5%.

And the viability, T/C (second compound 0.1 µM, first compound 0.03 µM)?
The viability, T/C was 14%.

What about the viability, T/C (second compound 0.1 µM, first compound 0.0949 µM) of the same compound?
Its viability, T/C is 0.36%.

What about the viability, T/C (second compound 0.1 µM, first compound 0.3 µM) of the same compound?
Its viability, T/C is 0.15%.

What about the viability, T/C (second compound 0.316 µM, first compound 0.000949 µM) of the same compound?
The viability, T/C was 25.6%.

And the viability, T/C (second compound 0.316 µM, first compound 0.003 µM)?
Its viability, T/C is 21.7%.

What about the viability, T/C (second compound 0.316 µM, first compound 0.00949 µM) of the same compound?
Its viability, T/C is 19.9%.

What about the viability, T/C (second compound 0.316 µM, first compound 0.03 µM) of the same compound?
The viability, T/C was 13%.

What about the viability, T/C (second compound 0.316 µM, first compound 0.0949 µM) of the same compound?
The viability, T/C was 0.27%.

And the viability, T/C (second compound 0.316 µM, first compound 0.3 µM)?
The viability, T/C was 0.12%.

What about the viability, T/C (second compound 1 µM, first compound 0.000949 µM) of the same compound?
Its viability, T/C is 25.8%.

And the viability, T/C (second compound 1 µM, first compound 0.003 µM)?
Its viability, T/C is 21.6%.

And the viability, T/C (second compound 1 µM, first compound 0.00949 µM)?
Its viability, T/C is 24.4%.

And the viability, T/C (second compound 1 µM, first compound 0.03 µM)?
The viability, T/C was 14.2%.

What about the viability, T/C (second compound 1 µM, first compound 0.0949 µM) of the same compound?
The viability, T/C was 0.38%.

What about the viability, T/C (second compound 1 µM, first compound 0.3 µM) of the same compound?
The viability, T/C was 0.88%.

And the viability, T/C (second compound 3.16 µM, first compound 0.000949 µM)?
Its viability, T/C is 21.6%.

And the viability, T/C (second compound 3.16 µM, first compound 0.003 µM)?
Its viability, T/C is 18.4%.

What about the viability, T/C (second compound 3.16 µM, first compound 0.00949 µM) of the same compound?
The viability, T/C was 19.6%.

What about the viability, T/C (second compound 3.16 µM, first compound 0.03 µM) of the same compound?
Its viability, T/C is 14.4%.

And the viability, T/C (second compound 3.16 µM, first compound 0.0949 µM)?
Its viability, T/C is 0.18%.

And the viability, T/C (second compound 3.16 µM, first compound 0.3 µM)?
Its viability, T/C is 0.15%.

What about the viability, T/C (second compound 10 µM, first compound 0.000949 µM) of the same compound?
Its viability, T/C is 22.1%.

And the viability, T/C (second compound 10 µM, first compound 0.003 µM)?
Its viability, T/C is 19.7%.

What about the viability, T/C (second compound 10 µM, first compound 0.00949 µM) of the same compound?
The viability, T/C was 17.4%.

And the viability, T/C (second compound 10 µM, first compound 0.03 µM)?
Its viability, T/C is 13.8%.

And the viability, T/C (second compound 10 µM, first compound 0.0949 µM)?
Its viability, T/C is 0.25%.

And the viability, T/C (second compound 10 µM, first compound 0.3 µM)?
The viability, T/C was 0.21%.
